From ChEMBL document CHEMBL1201862, “PubChem BioAssay data set” (2004) come the findings set out here.

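These data come from cells grown in 96-well plates and exposed to compound for 48 hours at five concentrations. Abbreviation: GI50, concentration required for 50% inhibition of growth.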 Calls of active or inactive are those of the source. Rule as the data show it: active = GI50 up to about 1.1 µM and inactive = higher. Some results are limits rather than exact numbers.

Common to all, as to test: DTP human tumour cell line panel, 48 h
Experiment [1] relates to LOX IMVI.
For experiment [2], the system named is ACHN.
The subject of experiment [3] is HOP-62.
The subject of experiment [4] is UACC-257.
For experiment [5], the system named is HCT-15.
For experiment [6], the system named is SNB-19.
Experiment [7] has as its system A498.
Experiment [8] has as its system A549.
The test system of experiment [9] is KM12.
Experiment [10] deals with SK-MEL-5.
The test system of experiment [11] is OVCAR-3.
The subject of experiment [12] is SNB-75.
Experiment [13] relates to TK-10.
The test system of experiment [14] is NCI-H226.
Experiment [15] has as its system Malme-3M.
Experiment [16] deals with 786-0.
Experiment [17] relates to OVCAR-4.
In experiment [18] the test system is MDA-N.

Regarding `CCN(CCCl)CCCCCNc1c2ccccc2nc2ccc(OC)cc12`, the concentration for 50% growth inhibition (GI50) in [1] was 0.178 µM (active); in experiment [2], 0.47 µM (active); in experiment [3], 2.14 µM (inactive); in experiment [4], 3.22 µM (inactive); in experiment [5] it was 1.3 µM; in experiment [6], 1.16 µM (inactive). For the same compound, the GI50 in experiment [7] was 1.26 µM (inactive); in experiment [8] it was 0.373 µM (active); in experiment [9] it was 0.454 µM (active); in experiment [10], 1.1 µM (active); in experiment [11], 1.83 µM (inactive); in experiment [12], 0.942 µM (active). Moreover, the GI50 was 7.66 µM (inactive) in [13]; 0.321 µM (active) in [14]; 2.04 µM (inactive) in experiment [15]; 0.345 µM (active) in experiment [16]; 1.01 µM (active) in [17].

In the case of `N=C(NNS(=O)(=O)c1ccccc1)Oc1ccc(Br)cc1Br`, the GI50 in [1] is > 100 µM (inactive); in [2], > 100 µM (inactive); in experiment [3], > 100 µM (inactive); in experiment [4], > 100 µM (inactive); in experiment [5], > 100 µM; in experiment [6], > 100 µM (inactive). The GI50 was > 100 µM (inactive) in experiment [7]; > 100 µM (inactive) in experiment [8]; > 100 µM (inactive) in experiment [9]; > 100 µM (inactive) in experiment [10]; > 100 µM (inactive) in experiment [11]; 94.2 µM (inactive) in experiment [12]. Further, the GI50 in [13] is > 100 µM (inactive); in experiment [14], 73.5 µM (inactive); in [15] it was > 100 µM (inactive); in [16], 41.3 µM (inactive); in experiment [17] it was > 100 µM (inactive).

As to `OCCN(CCO)c1ncnc2c1sc(=S)n2-c1ccccc1`, the GI50 in experiment [1] was > 100 µM (inactive); in experiment [2] it was > 100 µM (inactive); in experiment [3], > 100 µM (inactive); in experiment [4], > 100 µM (inactive); in [5], > 100 µM; in experiment [6] it was > 100 µM (inactive). For the same compound, the GI50 in [7] was 46 µM (inactive); in experiment [8], > 100 µM (inactive); in experiment [9], > 100 µM (inactive); in experiment [10], > 100 µM (inactive); in [11], > 100 µM (inactive); in [12] it was > 100 µM (inactive). In addition, the GI50 in experiment [13], in experiment [14], in experiment [15], in [16] and in [17] was > 100 µM (inactive) throughout.

On to `COc1cc2c(cc1OC)C(Cc1ccc(Oc3cc(CC4c5cc(OC)c(OC)cc5CCN4C)ccc3O)cc1)N(C)CC2` (centres undefined), for which the GI50 is 17.4 µM (inactive) in experiment [1]; 16.5 µM (inactive) in [2]; 24.3 µM (inactive) in experiment [3]; 16.2 µM (inactive) in experiment [4]; 15.6 µM in [5]; 40.6 µM (inactive) in [6]. The GI50 in experiment [7] is 22 µM (inactive); in experiment [8], 35.2 µM (inactive); in experiment [9], 21.9 µM (inactive); in [10], 15.7 µM (inactive); in [11] it was 19.5 µM (inactive); in experiment [12] it was 14.8 µM (inactive). For the same compound, the GI50 is 52.7 µM (inactive) in experiment [13]; 22.8 µM (inactive) in experiment [14]; 19.5 µM (inactive) in experiment [15]; 13.5 µM (inactive) in [16]; 20.5 µM (inactive) in experiment [17].

For `CCOC(=O)C12CCSC1C1(C#N)C(C#N)=CC2(N=P(c2ccccc2)(c2ccccc2)c2ccccc2)n2c(=O)n(-c3ccccc3)c(=O)n21` (centres undefined), the GI50 in experiment [1] was 39.9 µM (inactive); in experiment [2], 40.2 µM (inactive); in experiment [3], 46.2 µM (inactive); in experiment [4], 33.6 µM (inactive); in experiment [5], 34.8 µM; in experiment [6] it was 39.3 µM (inactive). Moreover, the GI50 in experiment [7] was 51.5 µM (inactive); in [8], 34.9 µM (inactive); in experiment [9], 32.6 µM (inactive); in experiment [10] it was 25.2 µM (inactive); in experiment [11] it was 25.4 µM (inactive); in experiment [12] it was 47 µM (inactive). The GI50 in [13] was > 100 µM (inactive); in [14], 41.3 µM (inactive); in [15], 44.6 µM (inactive); in [16], 47.8 µM (inactive); in [17], 21.9 µM (inactive).

For the compound `COc1ccc(/C=N/NC(=O)NCCNCCO)cc1`, the GI50 is > 100 µM (inactive) in experiment [1]; > 100 µM (inactive) in experiment [2]; > 100 µM (inactive) in experiment [3]; > 100 µM (inactive) in [4]; > 100 µM in experiment [5]; > 100 µM (inactive) in experiment [7]. Moreover, the GI50 in experiment [8], in experiment [9], in experiment [10], in experiment [11], in experiment [12] and in [13] was > 100 µM (inactive) each time. Besides, the GI50 in experiment [14], in experiment [15], in experiment [16] and in experiment [17] was > 100 µM (inactive) throughout.

For `COC(=O)c1ccc(C(=O)OC)c2nc3cc(Cl)ccc3nc12`, the GI50 in experiment [1] is > 100 µM (inactive); in [2], > 100 µM (inactive); in [3] it was > 100 µM (inactive); in experiment [4], > 100 µM (inactive); in [5], > 100 µM; in experiment [6], > 100 µM (inactive). Moreover, the GI50 in experiment [7], in experiment [8], in experiment [9], in experiment [10], in experiment [11] and in [12] was > 100 µM (inactive) in each case. Besides, the GI50 in [13], in experiment [14], in experiment [15], in experiment [16] and in experiment [17] was > 100 µM (inactive) in each case.

Take `Cc1nc(O)nc(CC(O)(c2ccccc2)c2ccccc2)c1-c1ccccc1`: the GI50 was > 100 µM (inactive) in experiment [1]; > 100 µM (inactive) in experiment [2]; > 100 µM (inactive) in experiment [3]; > 100 µM (inactive) in [4]; > 100 µM in [5]; > 100 µM (inactive) in experiment [6]. Moreover, the GI50 in experiment [7] was > 100 µM (inactive); in experiment [8], > 100 µM (inactive); in experiment [9], > 100 µM (inactive); in experiment [10] it was > 100 µM (inactive); in [11], > 100 µM (inactive); in [12], 52.6 µM (inactive). Further, the GI50 in experiment [13], in experiment [14], in experiment [15], in experiment [16] and in experiment [17] was > 100 µM (inactive) in each case.

On to `CCOC(=O)[C@H]1Nc2ccc(OC)cc2C2c3ccccc3CC21` (some centres undefined), for which the GI50 in experiment [1] was > 100 µM (inactive); in experiment [2], > 100 µM (inactive); in [3] it was > 100 µM (inactive); in experiment [4], > 100 µM (inactive); in experiment [5], > 100 µM; in experiment [6], > 100 µM (inactive). In addition, the GI50 was > 100 µM (inactive) in experiment [7]; > 100 µM (inactive) in [8]; > 100 µM (inactive) in experiment [9]; > 100 µM (inactive) in experiment [10]; > 100 µM (inactive) in [11]; 83.9 µM (inactive) in experiment [12]. Moreover, the GI50 in experiment [13], in experiment [14], in [15], in experiment [16] and in experiment [17] was > 100 µM (inactive) throughout.

On to `CS/C(=N/C(=O)c1ccccc1Cl)SCCS/C(=N\C(=O)c1ccccc1Cl)SC`, for which the GI50 in experiment [1] was > 100 µM (inactive); in [2], > 100 µM (inactive); in experiment [3] it was > 100 µM (inactive); in experiment [4] it was > 100 µM (inactive); in [5], > 100 µM; in [6], > 100 µM (inactive). Also, the GI50 in experiment [7], in experiment [8], in [9], in [10], in [11] and in [12] was > 100 µM (inactive) in each case. In addition, the GI50 in experiment [13], in experiment [14], in [15], in experiment [16] and in [17] was > 100 µM (inactive) in each case.

As for `CCOC(=O)/C=C/C(=O)O/C=C/[N+](=O)[O-]`, the GI50 in experiment [18] is > 100 µM (inactive); in experiment [1] it was > 100 µM (inactive); in experiment [2] it was > 100 µM (inactive); in [3] it was > 100 µM (inactive); in experiment [4] it was > 100 µM (inactive); in [5] it was > 100 µM. Besides, the GI50 in [7], in [9], in [10], in [11], in experiment [12] and in experiment [13] was > 100 µM (inactive) in each case. Further, the GI50 in [14] and in experiment [16] was > 100 µM (inactive) each time.

For `[N-]=[N+]=NC12CC3C4CC5CC3C(C1)C(C5)C4C2`, the GI50 in experiment [1], in experiment [2], in experiment [3], in [4], in [6] and in experiment [7] was > 100 µM (inactive) in each case. The GI50 in experiment [8], in [9], in [10], in [11], in [12] and in experiment [13] was > 100 µM (inactive) each time. Besides, the GI50 in experiment [14], in experiment [15], in experiment [16] and in experiment [17] was > 100 µM (inactive) throughout.
